According to article PMC12495443, “Developing inhibitors of the guanosine triphosphate hydrolysis accelerating activity of Regulator of G protein Signaling-14 [drawing 1]” (The Journal of Biological Chemistry, 2025):
Like-named read-outs stand apart in the source and are kept apart here.

Columns and labels:
[1] = molecular target: T1, human RGS12 RGS-box (wild-type) (Homo sapiens, UniProt O14924); assay: Transcreener GDP RGScreen fluorescence polarization assay of RGS12 RGS-box GAP activity on Gαi1(DM); format: biochemical; conditions: for IC50 / RGS12 pIC50: wild-type RGS12 RGS-box GAP activity, Gαi1(DM); for IC50: read-out: RGS12 pIC50 (converted)
T1 construct: human RGS12 RGS-box (aa 695–843 of UniProt O14924); host or cells: E. coli
T1 sequence (O14924 695-843): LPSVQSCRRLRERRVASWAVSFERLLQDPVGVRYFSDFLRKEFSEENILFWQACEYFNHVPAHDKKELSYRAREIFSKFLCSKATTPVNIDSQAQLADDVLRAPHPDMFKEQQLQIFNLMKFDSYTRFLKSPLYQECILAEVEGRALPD
Source text: (§1) We previously described work with BellBrook Labs creating the Transcreener GDP RGScreen fluorescence polarization assay of steady-state GTP hydrolysis, leveraging a double point-mutant in the Gα enzyme to make GTP hydrolysis, rather than GDP (product) release, the rate-limiting step for multiple rounds of GTP conversion ([57], [59]). […] Titrating inputs of the double point-mutant (“DM”) Gαi1 and RGS-box recombinant proteins (Fig. S2, B and C) established a robust, medium-throughput assay for evaluating potential RGS14 and RGS12 inhibitors, with “assay quality” Z′ scores ([60]) above 0.76 for each target (Fig. S2D).
(§2) Reagents and protocols for the fluorescence anisotropy-based Transcreener GDP RGScreen assay using a rate-altered, double point-mutant, recombinant Gαi1 protein have been extensively described previously ([43], [44]); reactions were always performed so that total GTP converted over the time course was consistently less than 10% of reaction maximum input. Specific methods for its application in assessing RGS14 and RGS12 GAP activity are summarized as follows. Open-reading frames (ORFs) encoding wild-type versions of the human RGS14 RGS-box (aa 46–195 of UniProt O43566) and human RGS12 RGS-box (aa 695–843 of UniProt O14924) were each sub-cloned in-frame with an N-terminal hexahistidine (His6) expression tag in the plasmid pET30a, expressed in E. coli cultures, and then purified by nickel-nitriloacetate (Ni-NTA) and size-exclusion (Superdex 200) column chromatographies by GenScript using previously described methods ([35]). These recombinant His6-tag fusion proteins were stored at −80 °C in storage buffer (150 mM NaCl, 50 mM Tris-HCl pH 8.0, 10% glycerol) before thawing and use. Cysteine-less versions were similarly produced by ORF site-directed mutagenesis: for RGS14, codons for cysteine residues 47 and 130 (numbered as in PDB id 2JNU) were replaced with serine codons; for RGS12, codons for cysteines 4, 51, 78, and 134 (numbered in relation to PDB id 2EBZ) were replaced with serine codons. Use of Transcreener GDP-detection reagents to assess compound inhibition of Naegleria fowleri Gα7 protein GTPase activity ([83]) has previously been described ([84]).

[2] = molecular target: T2, human RGS14 RGS-box (wild-type) (Homo sapiens, UniProt O43566); assay: Transcreener GDP RGScreen fluorescence polarization assay of RGS14 RGS-box GAP activity on Gαi1(DM); format: biochemical; conditions: for Ratio (RGS14 pIC50 / RGS12 pIC50): values > 1.0 reflect RGS14 selectivity
T2 construct: human RGS14 RGS-box (aa 46–195 of UniProt O43566); host or cells: E. coli
T2 sequence (O43566 46-195): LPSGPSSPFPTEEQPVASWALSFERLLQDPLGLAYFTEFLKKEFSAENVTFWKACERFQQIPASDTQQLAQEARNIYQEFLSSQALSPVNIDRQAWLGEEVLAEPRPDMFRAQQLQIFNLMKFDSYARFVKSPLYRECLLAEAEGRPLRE
Source text: as §1, §2

[3] = wild-type RGS14 RGS-box GAP activity, Gαi1(DM), Transcreener GDP RGScreen, read-out: RGS14 pIC50 (converted)
[4] = wild-type RGS14 RGS-box GAP activity, Gαi1(DM), Transcreener GDP RGScreen

| IC50 [1] [µM] | Ratio (RGS14 pIC50 / RGS12 pIC50) [2] | IC50 [2, 3] [µM] | Compound | further results |
| --- | --- | --- | --- | --- |
| 18.6 | 0.96 | 30.2 | COc1ccc(-c2nnc3n2N=C(c2ccc(NC(C)=O)cc2)[C@@H](C)S3)cc1OC [Z90277200] | – |
| 24 | 0.96 | 38 | O=C(O)C[C@@H]1Sc2nnc(CCC3CCCCC3)n2N=C1c1ccccc1 [Z90277285] | – |
| 30.2 | 0.93 | 61.7 | C1CC[C@H]2Sc3nnc([C@H]4CCCO4)n3N=C2C1 [Z90278035] | – |
| 224 | 0.87 | 646 | COc1ccc(OCc2nnc3n2N=C(c2cccc(N4CCCC4=O)c2)CS3)cc1 [Z667824974] | – |
| 40.7 | 0.91 | 100 | COC(=O)C1Sc2nnc(COc3ccc(F)cc3)n2N=C1c1cc2ccccc2o1 (stereo not shown) [Z8201263931] | – |
| – | 0.91 | – | O=C(O)CC1Sc2nnc(Cc3ccc(Br)cc3)n2N=C1c1ccc(Cl)cc1 (stereo not shown) [Z90276771] | RGS12 pIC50 [1]: 4.96; RGS14 pIC50 [2, 4]: 4.53 |
| 64.6 | 0.87 | 219 | COc1ccc(OCc2nnc3n2N=C(c2cc(C)n(-c4nccs4)c2C)CS3)cc1 [Z667824954] | – |
| 61.7 | 0.96 | 93.3 | O=C(O)C[C@@H]1Sc2nnc(-c3ccco3)n2N=C1c1ccc(F)cc1 [Z90276391] | – |
| 63.1 | – | ~200 | CC(Sc1n[nH]c2nc3ccccc3n12)C(=O)c1c(F)cc(F)cc1F (stereo not shown) [Z1098346193, 2-(2,4,5,7-tetraaza-tricyclo[6.4.0.0²,⁶]dodeca-1(12),3,5,8,10-pentaen-3-ylsulfanyl)-1-(2,4,6-trifluorophenyl)propan-1-one] | – |
| – | 1.00 | – | Cc1ccc(C2=Nn3c(COc4ccc(Cl)cc4)nnc3SC2CC(=O)O)cc1 (stereo not shown) [Z90276194] | RGS12 pIC50 [1]: 4.21; RGS14 pIC50 [2, 4]: 4.21 |
| 83.2 | 1.00 | 79.4 | O=C(O)C[C@@H]1Sc2nnc(-c3ccco3)n2N=C1c1ccccc1 [Z90276389] | – |
| 100 | 1.14 | 27.5 | COC(=O)C1Sc2nnc(COc3ccc(OC)cc3)n2N=C1c1cccc(N2CCCC2=O)c1 (stereo not shown) [Z7976707565] | – |
| 42.7 | 0.94 | – | O=C(O)C[C@@H]1Sc2nnc(COc3ccc(Cl)cc3)n2N=C1c1ccccc1 [Z90276197, 2-{3-[(4-chlorophenoxy)methyl]-6-phenyl-5H-[1,2,4]triazolo[3,4-b][1,3,4]thiadiazin-7-yl}acetic acid] | IC50 ([2]; wild-type RGS14 RGS-box, Transcreener GDP RGScreen, read-out: IC50 against RGS14 RGS-box GAP activity): 81 µM |
| 61.7 | 0.94 | 107 | CSc1nnc2n1N=C(c1ccc(NC(=O)C(C)C)cc1)[C@H](C)S2 [Z90277842] | – |
| 107 | 1.07 | 56.2 | O=C(O)CC1Sc2nnc(C3CCCO3)n2N=C1c1ccc(Cl)cc1 (stereo not shown) [Z90278051] | – |
| 44.7 | 0.92 | 102 | CCOc1ccccc1-c1nnc2n1N=C(c1ccc(NC(=O)C(C)C)cc1)[C@@H](C)S2 [Z90278674] | – |
| – | – | > 1000 | CCC(Sc1nc2ccc(OC)cc2[nH]1)C(=O)c1ccccc1 (stereo not shown) [Z447938100] | – |
| – | – | > 1000 | Cc1ccc2[nH]c(SC(C)C(=O)c3cccc(F)c3)nc2c1 (stereo not shown) [Z5032180743] | – |
| 174 | 1.00 | 170 | COc1cccc(OCc2nnc3n2N=C(c2ccccc2)[C@H](CC(=O)O)S3)c1 [Z90278437] | – |
| – | – | > 1000 | Cc1ccc2[nH]c(SC(C)C(=O)c3ccc(F)cc3F)nc2c1 (stereo not shown) [Z167804418] | – |

The remaining lines, values behind:

| Compound | IC50 [1] [µM] | Ratio (RGS14 pIC50 / RGS12 pIC50) [2] | IC50 [2, 3] [µM] | further results |
| --- | --- | --- | --- | --- |
| CC(C)(C)c1ccc(C2=Nn3c(nnc3-c3ccco3)SC2)cc1 [Z55660110] | 53.7 | – | 56.2 | – |
| CC(C)c1nnc2n1N=C(c1cc3ccccc3o1)CS2 [Z55627782] | 27.5 | 0.82 | 191 | – |
| CC1Sc2nnc(Cc3ccc(Br)cc3)n2N=C1c1ccc(Cl)cc1 (stereo not shown) [Z55660592] | 10 | 0.93 | 21.4 | – |
| CCN(CC)S(=O)(=O)c1cccc(-c2nnc3n2N=C(c2ccc(C)cc2)C(CC(=O)O)S3)c1 (stereo not shown) [Z90274338] | 288 | 1.14 | 93.3 | – |
| O=c1[nH]c(-c2ccc(C(F)(F)F)cc2)nn1-c1cc(Cl)ccc1O [BMS-192364, reference compound] | – | – | – | inhibition of RGS12 RGS-box GAP activity (in words) [1]: inactive; inhibition of RGS14 RGS-box GAP activity (in words) ([2]; Transcreener GDP RGScreen): inactive |
| Fc1ccccc1OCc1nnc2n1N=C(c1ccc(Cl)cc1)CS2 [Z55660438] | 20.4 | 0.77 | 234 | – |
| FC(F)Oc1ccc(C2=Nn3c(COc4ccccc4)nnc3SC2)cc1 [Z56840012] | 11.5 | 0.90 | 36.3 | – |
| COc1ccc(Cc2nnc3n2N=C(c2ccccc2)C(C)S3)cc1OC (stereo not shown) [Z55660788] | – | 0.90 | – | RGS12 pIC50 [1]: 4.50; RGS14 pIC50 [2, 4]: 4.03 |
| CCCc1ccc(C2=Nn3c(COc4ccccc4F)nnc3SC2)cc1 [Z55660462] | 10.5 | 0.96 | 16.6 | – |
| O=C(O)CC1Sc2nnc(C3COc4ccccc4O3)n2N=C1c1cccs1 (stereo not shown) [Z90275816] | 44.7 | 1.08 | 20.4 | – |
| c1ccc2c(c1)OC[C@@H](c1nnc3n1N=C(c1ccc4c(c1)OCCO4)CS3)O2 [Z55660304] | 8.71 | 0.90 | 28.8 | – |
| O=C(O)CC1Sc2nnc(C3CC3)n2N=C1c1ccc(F)cc1 (stereo not shown) [Z90274599] | 41.7 | 0.92 | 91.2 | – |
| COc1ccc(Cc2nnc3n2N=C(c2ccc(C)c(C)c2)[C@@H](C)S3)cc1OC [Z55660805] | 29.5 | 0.91 | 75.9 | – |
| Cc1ccc(C2=Nn3c(COc4ccc(Cl)cc4)nnc3SC2)c(C)c1 [Z55660524] | 26.9 | 0.82 | 170 | – |
| COc1cccc(C2=Nn3c(COc4ccc(Cl)cc4)nnc3SC2)c1 [Z55660496] | 42.7 | 0.85 | 191 | – |
| Cc1ccc(C2=Nn3c(COc4ccccc4)nnc3SC2)c(C)c1 [Z55659515] | 4.07 | – | 4.07 | – |
| Cc1ccc(C2=Nn3c(nnc3C3CC3)SC2CC(=O)O)cc1 (stereo not shown) [Z90274594] | 66.1 | 0.85 | 275 | – |
| C[C@H]1Sc2nnc(Cc3ccc(Br)cc3)n2N=C1c1ccc(NS(C)(=O)=O)cc1 [Z90276813] | 13.5 | 0.85 | 72.4 | – |
| COc1ccc(OCc2nnc3n2N=C(c2ccc(C)cc2)[C@@H](C)S3)cc1 [Z55660052] | 3.63 | 0.86 | 20.4 | – |
| O=C(O)CC1Sc2nnc(C3CC3)n2N=C1c1ccccc1 (stereo not shown) [Z90274597] | 151 | 0.92 | 302 | – |
| COc1ccc(OCc2nnc3n2N=C(c2ccc(NC(C)=O)cc2)CS3)cc1 [Z55660046] | 155 | – | > 1000 | – |
